The target in the assay is T1, wild type oCOX-1 (Ovis aries, UniProt P05979).
T1 construct: Ram seminal vesicles were purchased from Oxford Biomedical Research; tissue Oxford Biomedical Research; host or cells: ram seminal vesicles
T1 sequence (P05979 25-600): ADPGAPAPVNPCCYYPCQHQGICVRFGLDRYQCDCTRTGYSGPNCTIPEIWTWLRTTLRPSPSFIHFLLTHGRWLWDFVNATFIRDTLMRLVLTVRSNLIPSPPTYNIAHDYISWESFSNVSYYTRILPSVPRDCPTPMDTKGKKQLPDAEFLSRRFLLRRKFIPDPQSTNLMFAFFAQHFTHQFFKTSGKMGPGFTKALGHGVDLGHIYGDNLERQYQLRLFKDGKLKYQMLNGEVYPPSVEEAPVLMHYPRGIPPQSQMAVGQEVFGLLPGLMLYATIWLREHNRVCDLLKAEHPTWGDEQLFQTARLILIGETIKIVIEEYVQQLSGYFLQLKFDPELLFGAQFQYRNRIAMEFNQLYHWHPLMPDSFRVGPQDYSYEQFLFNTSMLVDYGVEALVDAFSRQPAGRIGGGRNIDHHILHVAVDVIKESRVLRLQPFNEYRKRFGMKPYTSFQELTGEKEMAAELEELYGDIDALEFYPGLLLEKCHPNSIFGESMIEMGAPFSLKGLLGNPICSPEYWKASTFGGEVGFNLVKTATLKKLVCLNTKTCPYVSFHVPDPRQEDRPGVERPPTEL
Nature of the assay: Time-dependent IC50 COX inhibition assay. The assay is classed as biochemical, ovine. How it is done: These mutated genes were used to assemble baculoviral constructs for large-scale expression in Sf9 cells. Purification of the expressed COX-2 protein was performed through traditional cellular fractionation and classical column chromatography. Activity or inhibition assays were performed in 100 mM Tris-HCl buffer containing 500 μM phenol, with hematin-reconstituted protein. Quantification of cyclooxygenase activity was performed by monitoring substrate (arachidonate or oxygen) consumption in a thermostatted cuvette at 37° C. using a polarographic electrode with a 5300 oxygen monitor (Yellow Springs Instrument Co. Inc., Yellow Springs, Ohio, United States of America). All inhibitors and substrates were solubilized in dimethyl sulfoxide (DMSO). Activity or inhibition assays were performed in 100 mM Tris-HCl buffer containing 500 μM phenol, with hematin-reconstituted protein. Maximal reaction velocity data were obtained from the linear portion of the oxygen uptake curves, and the data were analyzed by nonlinear regression with Prism 4.0 (GraphPad Software, San Diego, Calif., United States of America).
Time-dependent inhibition reactions were performed by pre-incubating the inhibitor and enzyme for 17 minutes at 25° C., followed by 3 minutes at 37° C. prior to the addition of 50 μM [1-^14C]-AA for 30 seconds at 37° C. Assays were terminated and analyzed for substrate consumption by thin layer chromatography as previously described (Kalgutkar et al., 2000a).
Maximal reaction velocity data were obtained from the linear portion of the oxygen uptake curves, and the data were analyzed by nonlinear regression. Instantaneous inhibition assays were performed with substrate and inhibitor added prior the initiation of the reaction by addition of protein. […]
Assays were terminated and analyzed for substrate consumption by thin layer chromatography. […] All reactions were performed with [1-^14C]-AA for 30 seconds at 37° C.; reactions were terminated and analyzed as described above. […]

The values that follow come from patent US8168656B2, “Indoleacetic acid and indenacetic acid derivatives as therapeutic agents with reduced gastrointestinal toxicity” (Vanderbilt University, priority 2009, dated 2012).

For `COc1ccc2c(c1)c(CC(=O)O)cn2C(=O)c1ccc(Cl)cc1` [DM-INDO, 2-Des-methylindomethacin], the “inhibition of ovine COX-1” value (concentrations up to 16 μM) is “does not appear to be inhibited at all”. Moreover, the “inhibition in the time-dependent IC50 assay” value (wild type oCOX-1) was “less than 20%”. Also, the IC50 (usually the concentration at which inhibition is half-maximal) (wild type oCOX-1, 20 min pre-incubation, then 50 μM AA for 30 s) is above 16 µM.
